The test system of one data set is Canavalia ensiformis. In words: Percent inhibition against alpha-D-mannosidase from jack bean at 1 mM concentration.
For a further data set, the system named is Clostridium perfringens. Put plainly: Percent inhibition against neuraminidase from Type X, Clostridium perfringens at 1 mM concentration.
Substrate in data set [1]: Cc1cc(=O)oc2cc(OC3O[C@H](C)[C@H](O)[C@H](O)[C@H]3O)ccc12
Put plainly: The Michaelis-Menten constant against alpha-L-fucosidase from solubilized human neutrophils was determined.

Usually inhibition stands for the drop in the measured response relative to a control, in per cent. On to `C[C@@H]1NC[C@@H](O)[C@H](O)[C@@H]1O`, for which the results for the inhibition in the data set on Canavalia ensiformis and in the data set with Clostridium perfringens were 83% and 50%, respectively.

Turning to `CC1NC(CO)[C@@H](O)C(O)[C@@H]1O` (single isomer, unassigned), the inhibition in the data set with Canavalia ensiformis and in the data set on Clostridium perfringens was 0% throughout.

B1: Plasma alpha-L-fucosidase (Homo sapiens), Q9BTY2 (protein)
chain: MRPQELPRLAFPLLLLLLLLLPPPPCPAHSATRFDPTWESLDARQLPAWFDQAKFGIFIHWGVFSVPSFGSEWFWWYWQKEKIPKYVEFMKDNYPPSFKYEDFGPLFTAKFFNANQWADIFQASGAKYIVLTSKHHEGFTLWGSEYSWNWNAIDEGPKRDIVKELEVAIRNRTDLRFGLYYSLFEWFHPLFLEDESSSFHKRQFPVSKTLPELYELVNNYQPEVLWSDGDGGAPDQYWNSTGFLAWLYNESPVRGTVVTNDRWGAGSICKHGGFYTCSDRYNPGHLLPHKWENCMTIDKLSWGYRREAGISDYLTIEELVKQLVETVSCGGNLLMNIGPTLDGTISVVFEERLRQMGSWLKVNGEAIYETHTWRSQNDTVTPDVWYTSKPKEKLVYAIFLKWPTSGQLFLGHPKAILGATEVKLLGHGQPLNWISLEQNGIMVELPQLTIHQMPCKWGWALALTNVI
A word on the Km: it is the substrate concentration at which the rate is half of its maximum. B1: in data set [1], the Km turned out to be 250 µM.

The values are drawn from ChEMBL document CHEMBL1150025, “Synthesis of and glycosidase inhibition by -l-homofuconojirimycin” (Bioorg Med Chem Lett, 1993).
